Data published in PubChem BioAssay (NCI).
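Cultured in 96-well plates, cells were exposed to test compound for 48 hours across five concentrations. TGI is the concentration that stops growth completely.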

How the values were obtained:
Assay in all cases: NCI tumour cell line growth inhibition, 48 h
[1] = tested on: OVCAR-8 ovarian
[2] = tested on: CCRF-CEM leukemia
[3] = tested on: K-562 leukemia
[4] = tested on: SF-295 CNS
[5] = tested on: SK-OV-3 ovarian
[6] = tested on: TK-10 renal
[7] = tested on: OVCAR-4 ovarian
[8] = tested on: SF-268 CNS
[9] = tested on: HCT-15 colon
[10] = tested on: HOP-92 NSCLC
[11] = tested on: NCI-H23 lung
[12] = tested on: M14 melanoma
[13] = tested on: SNB-75 CNS
[14] = tested on: NCI-H522 lung
[15] = tested on: MOLT-4 leukemia
[16] = tested on: T-47D breast
[17] = tested on: HS 578T breast
[18] = tested on: SK-MEL-28 melanoma
[19] = tested on: KM12 colon
[20] = tested on: MDA-N
[21] = tested on: OVCAR-3 ovarian
[22] = tested on: MDA-MB-435
[23] = tested on: HOP-62 NSCLC
[24] = tested on: NCI-H460 lung
[25] = tested on: PC-3 prostate
[26] = tested on: UO-31 renal
[27] = tested on: SK-MEL-5 melanoma
[28] = tested on: IGROV1 ovarian
[29] = tested on: HCT-116 colon
[30] = tested on: SK-MEL-2 melanoma
[31] = tested on: UACC-62 melanoma
[32] = tested on: UACC-257 melanoma
[33] = tested on: MALME-3M melanoma
[34] = tested on: COLO 205 colon
[35] = tested on: 786-0 renal
[36] = tested on: SW-620 colon
[37] = tested on: RPMI-8226 leukemia
[38] = tested on: SR leukemia
[39] = tested on: SNB-19 CNS
[40] = tested on: DU-145 prostate
[41] = tested on: LOX IMVI melanoma
[42] = tested on: HCC-2998 colon
[43] = tested on: SN12C renal
[44] = tested on: NCI-H226 lung
[45] = tested on: HT29 colon
[46] = tested on: NCI/ADR-RES ovarian
[47] = tested on: BT-549 breast
[48] = tested on: CAKI-1 renal
[49] = tested on: MDA-MB-231 breast
[50] = tested on: RXF 393 renal
[51] = tested on: A549 NSCLC
[52] = tested on: ACHN renal
[53] = tested on: EKVX NSCLC
[54] = tested on: U251 CNS
[55] = tested on: OVCAR-5 ovarian
[56] = tested on: MCF7 breast
[57] = tested on: SF-539 CNS
[58] = tested on: A498 renal

Measured: TGI

Cc1cccc2c1NC(=S)[C@@H]1CCCN1C2=O
> 100 µM: all assays above

Cc1nc2c(sc3nc4ccccc4n32)c(=O)[nH]1
not listed: [3] | [24] | [43] | [45]
> 100 µM: all other assays above
